The text below walks through data of ChEMBL document CHEMBL5291721, “A preclinical secondary pharmacology resource illuminates target-adverse drug reaction associations of marketed drugs” (Nat Commun, 2023).

The structures appear in SMILES notation. Where a SMILES comes first, the peptide text is derived from it. [ ]: non-standard residue; d: D form. pGlu = O=C1CC[C@@H](C(=O)O)N1; Thz = O=C(O)[C@@H]1CSCN1

Some targets named below: Adenosine receptor A2a (Homo sapiens, UniProt P29274); Vasopressin V2 receptor (Homo sapiens, UniProt P30518); Histamine H1 receptor (Homo sapiens, UniProt P35367); Histamine H3 receptor (Homo sapiens, UniProt Q9Y5N1); Vasopressin V1a receptor (Homo sapiens, UniProt P37288).
Experiment [1] addresses T1, Muscarinic acetylcholine receptor M1 (Homo sapiens, UniProt P11229).
T1 sequence (P11229 whole entry): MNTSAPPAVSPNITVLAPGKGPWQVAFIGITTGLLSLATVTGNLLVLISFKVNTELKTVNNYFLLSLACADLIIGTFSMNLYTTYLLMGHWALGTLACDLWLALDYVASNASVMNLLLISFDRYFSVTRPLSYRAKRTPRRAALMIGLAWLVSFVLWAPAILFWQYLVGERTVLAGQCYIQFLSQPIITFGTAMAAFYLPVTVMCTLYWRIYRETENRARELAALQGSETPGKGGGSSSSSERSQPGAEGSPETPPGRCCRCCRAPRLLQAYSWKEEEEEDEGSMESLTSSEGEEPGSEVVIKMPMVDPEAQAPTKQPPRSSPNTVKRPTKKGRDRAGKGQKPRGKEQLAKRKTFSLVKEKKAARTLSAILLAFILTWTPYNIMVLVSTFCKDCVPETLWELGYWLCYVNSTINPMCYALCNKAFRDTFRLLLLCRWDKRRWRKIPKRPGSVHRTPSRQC
Type of experiment: functional.

Experiment [2] addresses Beta-1 adrenergic receptor (Homo sapiens, UniProt P08588). The format is functional.
The target of experiment [3] is cGMP-inhibited 3',5'-cyclic phosphodiesterase 3A (Homo sapiens, UniProt Q14432). The format is functional.
Sequence of cGMP-inhibited 3',5'-cyclic phosphodiesterase 3A (Q14432 whole entry): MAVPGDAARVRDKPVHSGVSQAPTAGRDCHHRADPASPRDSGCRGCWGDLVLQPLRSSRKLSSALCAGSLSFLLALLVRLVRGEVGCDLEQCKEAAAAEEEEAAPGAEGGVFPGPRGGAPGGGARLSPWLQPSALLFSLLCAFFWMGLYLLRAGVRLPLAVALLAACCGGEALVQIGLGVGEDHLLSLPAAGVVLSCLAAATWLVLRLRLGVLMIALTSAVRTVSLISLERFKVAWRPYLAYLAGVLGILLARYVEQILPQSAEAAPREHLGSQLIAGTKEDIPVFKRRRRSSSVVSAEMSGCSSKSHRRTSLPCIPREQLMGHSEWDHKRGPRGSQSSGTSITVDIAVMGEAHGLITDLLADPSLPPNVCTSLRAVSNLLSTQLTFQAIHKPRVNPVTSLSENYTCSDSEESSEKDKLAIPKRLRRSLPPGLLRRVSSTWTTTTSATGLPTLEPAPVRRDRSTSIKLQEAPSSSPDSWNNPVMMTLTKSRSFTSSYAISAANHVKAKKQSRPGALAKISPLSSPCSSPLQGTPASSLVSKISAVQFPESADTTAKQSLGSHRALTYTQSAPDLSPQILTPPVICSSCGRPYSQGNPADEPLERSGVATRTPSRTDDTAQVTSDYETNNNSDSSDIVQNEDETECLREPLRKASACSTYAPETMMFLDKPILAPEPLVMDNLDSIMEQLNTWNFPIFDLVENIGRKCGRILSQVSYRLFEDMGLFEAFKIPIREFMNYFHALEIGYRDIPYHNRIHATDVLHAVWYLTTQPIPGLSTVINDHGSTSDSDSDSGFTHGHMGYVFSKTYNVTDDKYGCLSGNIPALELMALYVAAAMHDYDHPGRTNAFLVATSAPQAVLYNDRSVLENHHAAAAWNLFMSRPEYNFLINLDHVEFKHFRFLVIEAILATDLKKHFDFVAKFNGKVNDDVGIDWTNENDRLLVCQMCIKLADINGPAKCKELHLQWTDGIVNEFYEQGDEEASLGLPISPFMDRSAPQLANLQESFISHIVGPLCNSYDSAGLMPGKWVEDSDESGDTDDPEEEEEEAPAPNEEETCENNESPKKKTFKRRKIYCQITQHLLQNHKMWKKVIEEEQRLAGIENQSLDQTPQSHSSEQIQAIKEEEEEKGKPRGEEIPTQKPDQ
A further experiment has as its target Cannabinoid receptor 1 (Homo sapiens, UniProt P21554). Type of experiment: functional, cell-based.
Experiment [4] addresses T2, 5-hydroxytryptamine receptor 1A (Homo sapiens, UniProt P08908).
T2 sequence (P08908 whole entry): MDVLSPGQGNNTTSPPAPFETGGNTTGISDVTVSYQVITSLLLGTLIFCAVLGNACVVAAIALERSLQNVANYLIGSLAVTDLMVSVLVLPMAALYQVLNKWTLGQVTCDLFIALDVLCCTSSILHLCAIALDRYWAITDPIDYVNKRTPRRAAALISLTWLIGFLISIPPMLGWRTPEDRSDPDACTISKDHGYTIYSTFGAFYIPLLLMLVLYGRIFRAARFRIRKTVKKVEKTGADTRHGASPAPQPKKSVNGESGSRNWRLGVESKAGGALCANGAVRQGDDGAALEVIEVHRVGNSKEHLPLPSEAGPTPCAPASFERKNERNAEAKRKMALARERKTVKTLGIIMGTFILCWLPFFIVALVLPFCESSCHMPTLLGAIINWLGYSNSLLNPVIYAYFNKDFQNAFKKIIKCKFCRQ
Type of experiment: functional, cell-based.

In the next experiment the target is Histamine H2 receptor (Homo sapiens, UniProt P25021). Type of experiment: functional, cell-based.
Sequence of Histamine H2 receptor (P25021 whole entry): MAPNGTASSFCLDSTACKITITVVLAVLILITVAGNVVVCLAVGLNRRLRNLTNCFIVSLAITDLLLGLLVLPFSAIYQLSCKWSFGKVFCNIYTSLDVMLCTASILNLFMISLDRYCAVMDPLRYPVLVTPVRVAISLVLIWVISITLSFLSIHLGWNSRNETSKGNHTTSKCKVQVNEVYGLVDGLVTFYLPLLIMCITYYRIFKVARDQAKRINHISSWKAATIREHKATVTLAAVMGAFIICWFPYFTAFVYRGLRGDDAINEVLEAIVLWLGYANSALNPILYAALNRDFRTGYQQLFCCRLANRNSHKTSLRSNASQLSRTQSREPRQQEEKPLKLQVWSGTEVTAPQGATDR
In the next experiment the target is Mu-type opioid receptor (Homo sapiens, UniProt P35372). The experiment can be described thus: biochemical. Type of experiment: functional.
Sequence of Mu-type opioid receptor (P35372 whole entry): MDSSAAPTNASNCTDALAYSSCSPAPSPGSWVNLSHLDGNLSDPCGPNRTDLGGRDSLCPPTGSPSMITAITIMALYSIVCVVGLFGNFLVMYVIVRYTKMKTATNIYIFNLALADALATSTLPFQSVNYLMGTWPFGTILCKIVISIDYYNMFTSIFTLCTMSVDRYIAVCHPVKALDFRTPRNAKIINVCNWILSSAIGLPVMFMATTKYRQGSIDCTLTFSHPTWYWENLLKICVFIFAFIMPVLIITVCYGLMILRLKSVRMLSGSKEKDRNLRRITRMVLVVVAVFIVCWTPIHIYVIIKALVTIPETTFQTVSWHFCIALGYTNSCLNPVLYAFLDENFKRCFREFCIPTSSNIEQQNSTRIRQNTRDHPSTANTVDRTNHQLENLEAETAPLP
Experiment [5] deals with 5-hydroxytryptamine receptor 2A (Homo sapiens, UniProt P28223). The format is functional, cell-based.
Sequence of 5-hydroxytryptamine receptor 2A (P28223 whole entry): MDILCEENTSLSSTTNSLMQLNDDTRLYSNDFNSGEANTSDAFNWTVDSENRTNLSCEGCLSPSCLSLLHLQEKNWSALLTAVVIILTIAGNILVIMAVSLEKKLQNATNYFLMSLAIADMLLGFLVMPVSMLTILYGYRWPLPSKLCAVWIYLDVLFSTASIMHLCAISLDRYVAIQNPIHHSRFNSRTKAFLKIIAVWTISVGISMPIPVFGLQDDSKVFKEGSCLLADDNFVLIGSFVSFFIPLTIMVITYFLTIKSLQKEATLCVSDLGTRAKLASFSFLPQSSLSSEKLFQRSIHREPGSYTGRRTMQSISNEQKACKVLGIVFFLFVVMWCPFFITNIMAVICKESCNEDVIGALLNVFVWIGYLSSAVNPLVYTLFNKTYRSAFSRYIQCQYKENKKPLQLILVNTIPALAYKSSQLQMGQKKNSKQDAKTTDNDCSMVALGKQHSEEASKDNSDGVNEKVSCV
Experiment [6] concerns the target Growth hormone secretagogue receptor type 1 (Homo sapiens, UniProt Q92847).
Experiment [7] has as its target 3',5'-cyclic-AMP phosphodiesterase 4D (Homo sapiens, UniProt Q08499). Type of experiment: functional.
Experiment [8] concerns the target Glutamate receptor ionotropic, NMDA 1 (Rattus norvegicus, UniProt P35439).
The target of experiment [9] is T3, Muscarinic acetylcholine receptor M2 (Homo sapiens, UniProt P08172).
T3 sequence (P08172 whole entry): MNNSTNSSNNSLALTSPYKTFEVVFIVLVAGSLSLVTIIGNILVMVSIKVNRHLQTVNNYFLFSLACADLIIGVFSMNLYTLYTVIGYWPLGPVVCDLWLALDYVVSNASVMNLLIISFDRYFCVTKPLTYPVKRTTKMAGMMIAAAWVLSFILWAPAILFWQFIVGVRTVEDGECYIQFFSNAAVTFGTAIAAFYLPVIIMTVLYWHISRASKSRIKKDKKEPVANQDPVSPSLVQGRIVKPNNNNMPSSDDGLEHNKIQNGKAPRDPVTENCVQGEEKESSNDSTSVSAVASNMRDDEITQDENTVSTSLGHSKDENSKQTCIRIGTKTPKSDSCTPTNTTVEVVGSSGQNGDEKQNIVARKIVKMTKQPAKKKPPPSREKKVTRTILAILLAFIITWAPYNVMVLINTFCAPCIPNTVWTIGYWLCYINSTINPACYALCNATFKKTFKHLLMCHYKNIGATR
The format is functional, cell-based.

Experiment [10] addresses Gamma-aminobutyric acid receptor subunit alpha-1 (Rattus norvegicus, UniProt P62813). Type of experiment: functional.
Experiment [11] has as its target T3, Muscarinic acetylcholine receptor M2. Type of experiment: functional, cell-based. The source holds these as a separate data set.
For experiment [12], the target named is Voltage-dependent L-type calcium channel subunit alpha-1C (Rattus norvegicus, UniProt P22002). Type of experiment: functional.
Further: assay procedure not described here.

Sequence of Growth hormone secretagogue receptor type 1 (Q92847 whole entry): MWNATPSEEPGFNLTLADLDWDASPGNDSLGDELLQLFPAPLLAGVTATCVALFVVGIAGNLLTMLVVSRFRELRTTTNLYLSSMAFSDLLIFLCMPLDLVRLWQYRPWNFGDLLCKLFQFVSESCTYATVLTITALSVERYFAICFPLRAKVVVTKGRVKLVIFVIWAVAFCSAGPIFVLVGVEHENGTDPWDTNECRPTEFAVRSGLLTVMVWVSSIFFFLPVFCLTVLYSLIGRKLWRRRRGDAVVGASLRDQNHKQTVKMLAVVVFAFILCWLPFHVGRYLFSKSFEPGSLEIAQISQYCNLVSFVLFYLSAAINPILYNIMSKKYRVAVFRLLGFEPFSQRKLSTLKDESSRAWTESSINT
Sequence of Histamine H3 receptor (Q9Y5N1 whole entry): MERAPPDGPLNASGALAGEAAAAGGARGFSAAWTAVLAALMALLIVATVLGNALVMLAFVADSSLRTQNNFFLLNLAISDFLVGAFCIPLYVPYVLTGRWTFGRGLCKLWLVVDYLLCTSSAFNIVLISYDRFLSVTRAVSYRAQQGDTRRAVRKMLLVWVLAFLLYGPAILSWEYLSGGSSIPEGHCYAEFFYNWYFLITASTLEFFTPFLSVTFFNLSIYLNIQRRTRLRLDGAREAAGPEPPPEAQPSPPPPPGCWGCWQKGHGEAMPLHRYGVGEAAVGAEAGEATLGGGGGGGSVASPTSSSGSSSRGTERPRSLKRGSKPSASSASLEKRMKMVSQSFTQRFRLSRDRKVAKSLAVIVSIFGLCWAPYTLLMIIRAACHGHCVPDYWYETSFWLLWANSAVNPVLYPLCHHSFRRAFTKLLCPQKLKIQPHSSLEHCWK
Sequence of Vasopressin V1a receptor (P37288 whole entry): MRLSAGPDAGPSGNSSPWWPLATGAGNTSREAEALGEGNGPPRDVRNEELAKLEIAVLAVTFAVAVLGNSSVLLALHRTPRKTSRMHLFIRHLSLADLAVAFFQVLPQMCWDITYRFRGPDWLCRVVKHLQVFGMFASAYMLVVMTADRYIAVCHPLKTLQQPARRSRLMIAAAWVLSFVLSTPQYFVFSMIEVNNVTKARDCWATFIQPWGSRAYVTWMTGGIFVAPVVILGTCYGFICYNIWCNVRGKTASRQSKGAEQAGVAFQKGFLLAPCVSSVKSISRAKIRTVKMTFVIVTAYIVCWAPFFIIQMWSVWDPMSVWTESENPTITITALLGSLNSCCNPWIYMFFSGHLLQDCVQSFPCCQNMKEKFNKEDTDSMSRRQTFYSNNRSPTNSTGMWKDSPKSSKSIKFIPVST
Sequence of Beta-1 adrenergic receptor (P08588 whole entry): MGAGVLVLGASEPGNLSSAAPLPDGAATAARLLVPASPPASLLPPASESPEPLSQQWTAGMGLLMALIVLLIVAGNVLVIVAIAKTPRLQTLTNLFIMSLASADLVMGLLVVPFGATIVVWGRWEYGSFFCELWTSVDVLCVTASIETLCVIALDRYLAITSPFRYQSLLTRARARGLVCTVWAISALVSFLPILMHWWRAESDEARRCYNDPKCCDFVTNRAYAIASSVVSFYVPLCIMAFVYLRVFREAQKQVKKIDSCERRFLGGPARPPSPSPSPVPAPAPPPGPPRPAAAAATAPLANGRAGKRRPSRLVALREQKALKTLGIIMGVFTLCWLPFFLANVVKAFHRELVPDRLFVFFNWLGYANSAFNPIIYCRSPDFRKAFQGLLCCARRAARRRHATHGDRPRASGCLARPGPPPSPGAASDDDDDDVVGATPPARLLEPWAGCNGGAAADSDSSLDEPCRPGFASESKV
Sequence of 3',5'-cyclic-AMP phosphodiesterase 4D (Q08499 whole entry): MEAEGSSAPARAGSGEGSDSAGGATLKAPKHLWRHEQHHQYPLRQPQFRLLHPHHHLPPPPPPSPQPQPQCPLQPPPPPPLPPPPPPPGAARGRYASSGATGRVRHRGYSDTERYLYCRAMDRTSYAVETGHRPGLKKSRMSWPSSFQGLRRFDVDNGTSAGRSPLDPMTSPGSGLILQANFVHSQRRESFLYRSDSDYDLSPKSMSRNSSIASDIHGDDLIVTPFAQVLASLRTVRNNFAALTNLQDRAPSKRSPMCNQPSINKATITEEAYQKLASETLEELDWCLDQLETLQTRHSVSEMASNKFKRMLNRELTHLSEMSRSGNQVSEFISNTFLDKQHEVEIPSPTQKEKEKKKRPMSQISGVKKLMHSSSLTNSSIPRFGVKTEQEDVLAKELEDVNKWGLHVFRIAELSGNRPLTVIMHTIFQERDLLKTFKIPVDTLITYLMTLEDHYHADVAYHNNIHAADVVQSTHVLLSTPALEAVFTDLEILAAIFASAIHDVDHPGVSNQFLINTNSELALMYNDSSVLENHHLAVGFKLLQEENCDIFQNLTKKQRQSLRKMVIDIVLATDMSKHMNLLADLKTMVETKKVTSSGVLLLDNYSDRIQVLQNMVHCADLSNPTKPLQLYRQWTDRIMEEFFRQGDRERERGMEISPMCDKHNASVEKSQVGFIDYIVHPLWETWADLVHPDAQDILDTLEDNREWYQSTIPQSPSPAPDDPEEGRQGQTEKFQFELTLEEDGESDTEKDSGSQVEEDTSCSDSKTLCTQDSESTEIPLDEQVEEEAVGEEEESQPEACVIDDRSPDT

For `CO/N=C(\C(=O)N[C@@H]1C(=O)N2C(C(=O)O)=C(CSc3nc(=O)c(=O)[nH]n3C)CS[C@H]12)c1csc(N)n1` [CEFTRIAXONE], the AC50 (in experiment [1]; in experiment [2]; in [3]; at Cannabinoid receptor 1; on Adenosine receptor A2a; at Vasopressin V2 receptor) was above 30 µM in each case. Besides, the AC50 (in experiment [4]; on Histamine H2 receptor; on Histamine H1 receptor; on Mu-type opioid receptor; in experiment [5]; in experiment [6]) was above 30 µM throughout. Besides, the concentration at half-maximal activity (AC50) (in [7]; in [8]; at Histamine H3 receptor; in experiment [9]; on Vasopressin V1a receptor; in experiment [10]) was above 30 µM throughout. In addition, the AC50 in experiment [11] is above 30 µM.
In the case of `COc1cc2[nH]c(C)c(CCN3CCN(c4ccccc4)CC3)c2cc1OC` [OXYPERTINE], the AC50 in experiment [1] is above 30 µM; in experiment [2], 26 µM; in experiment [3], above 30 µM; on Cannabinoid receptor 1, above 30 µM; at Adenosine receptor A2a it was above 30 µM; on Vasopressin V2 receptor, above 30 µM. Also, the AC50 in experiment [4] was 0.15 µM; on Histamine H2 receptor, above 30 µM; at Histamine H1 receptor it was 1.9 µM; on Mu-type opioid receptor it was above 30 µM; in experiment [5], above 30 µM; in [6], above 30 µM. The AC50 in experiment [7] was 9.8 µM; in [8], above 30 µM; on Histamine H3 receptor it was above 30 µM; in experiment [9], above 30 µM; at Vasopressin V1a receptor it was above 30 µM; in [10], above 30 µM. Also, in experiment [11], the concentration at half-maximal activity (AC50) is above 30 µM.
As for `c1ccc(C2(N3CCCCC3)CCCCC2)cc1` [PHENCYCLIDINE], the half-maximal activity concentration (AC50) (in experiment [1]; in experiment [2]; in experiment [3]; at Cannabinoid receptor 1; at Adenosine receptor A2a; at Vasopressin V2 receptor) was above 30 µM throughout. Moreover, the AC50 (in experiment [4]; at Histamine H2 receptor; on Histamine H1 receptor; at Mu-type opioid receptor; in experiment [5]; in [6]) was above 30 µM in each case. Besides, the AC50 is above 30 µM in [7]; 0.288 µM in experiment [8]; above 30 µM at Histamine H3 receptor; above 30 µM in experiment [9]; above 30 µM on Vasopressin V1a receptor; above 30 µM in [10]. In [11], this molecule registered an AC50 above 30 µM.
`O=C1CC[C@@H](C(=O)N2CSC[C@H]2C(=O)O)N1` [PIDOTIMOD] ([pGlu]-[Thz]-OH): the AC50 (in [1]; in experiment [2]; in [3]; on Cannabinoid receptor 1; at Adenosine receptor A2a; in experiment [12]) was above 30 µM in each case. In addition, the AC50 (on Vasopressin V2 receptor; on Histamine H2 receptor; on Histamine H1 receptor; on Mu-type opioid receptor; in experiment [5]; in experiment [6]) was above 30 µM each time. In addition, the AC50 (in experiment [7]; in [8]; on Histamine H3 receptor; in experiment [9]; at Vasopressin V1a receptor; in [10]) was above 30 µM each time. For the same molecule, in experiment [11], the concentration at half-maximal activity (AC50) is above 30 µM.
For `COc1cc(C(=O)OCc2cccc(COC(=O)c3cc(OC)c(OC)c(OC)c3)n2)cc(OC)c1OC` [PIROZADIL], the AC50 (in [1]; in experiment [2]; in experiment [3]; on Cannabinoid receptor 1; on Adenosine receptor A2a; at Vasopressin V2 receptor) was above 30 µM each time. In addition, the AC50 (in experiment [4]; on Histamine H2 receptor; on Histamine H1 receptor; at Mu-type opioid receptor; in experiment [5]; in experiment [6]) was above 30 µM in each case. Moreover, the AC50 (in experiment [7]; in [8]; at Histamine H3 receptor; in [9]; on Vasopressin V1a receptor; in experiment [10]) was above 30 µM throughout. In experiment [11], this molecule gave a half-maximal activity concentration (AC50) above 30 µM.
Regarding `CCC(NC(C)C)C(O)c1ccc(O)c2[nH]c(=O)ccc12` (configuration not stated) [PROCATEROL], the AC50 is above 30 µM in [1]; 17 µM in experiment [2]; above 30 µM in experiment [3]; above 30 µM at Cannabinoid receptor 1; above 30 µM on Adenosine receptor A2a; above 30 µM in experiment [12]. Also, the half-maximal activity concentration (AC50) (on Vasopressin V2 receptor; at Histamine H2 receptor; on Histamine H1 receptor; on Mu-type opioid receptor; in experiment [5]; in [6]) was above 30 µM in each case. Further, the AC50 (in experiment [7]; in experiment [8]; on Histamine H3 receptor; in experiment [9]; at Vasopressin V1a receptor; in [10]) was above 30 µM each time. In experiment [11], this molecule had an AC50 above 30 µM.
`CCCN1CCCC[C@H]1C(=O)Nc1c(C)cccc1C` [ROPIVACAINE]: the AC50 (in experiment [1]; in experiment [2]; in [3]; on Cannabinoid receptor 1; at Adenosine receptor A2a; in [12]) was above 30 µM throughout. The AC50 (at Vasopressin V2 receptor; on Histamine H2 receptor; on Histamine H1 receptor; at Mu-type opioid receptor; in experiment [5]; in experiment [6]) was above 30 µM throughout. Further, the AC50 (in experiment [7]; in experiment [8]; on Histamine H3 receptor; in [9]; at Vasopressin V1a receptor; in [10]) was above 30 µM in each case. In experiment [11], the AC50 was above 30 µM.
For the molecule `CCN1CCCC1CNC(=O)c1cc(S(=O)(=O)CC)ccc1OC` (configuration not stated) [SULTOPRIDE], the AC50 (in experiment [1]; in experiment [2]; in [3]; at Cannabinoid receptor 1; on Adenosine receptor A2a; at Vasopressin V2 receptor) was above 30 µM throughout. Also, the AC50 (in experiment [4]; on Histamine H2 receptor; at Histamine H1 receptor; on Mu-type opioid receptor; in experiment [5]; in experiment [6]) was above 30 µM each time. Besides, the AC50 was above 30 µM in experiment [7]; above 30 µM in experiment [8]; 22 µM on Histamine H3 receptor; above 30 µM in [9]; above 30 µM on Vasopressin V1a receptor; above 30 µM in [10]. The molecule also came in with an AC50 in [11] above 30 µM.
